Measurements reported in ChEMBL document CHEMBL4406843, “β-Amino acid derivatives as mitochondrial complex III inhibitors of L. donovani: A promising chemotype targeting visceral leishmaniasis” (Eur J Med Chem, 2019).
Values belong to the molecule of their own block, whether it stands above or below them. Activity calls are given as the source filed them. The calls are words filed in the database; no cut-off is given here.

Experiments:
Leishmania donovani [1] = assay: Inhibition of succinate-ubiquinone oxidoreductase in Leishmania donovani promastigotes mitochondria using succinate as substrate in presence fo DCPIP by photometry analysis relative to control; conditions: concentration not given here
Leishmania donovani [2] = assay: Antileishmanial activity against Leishmania donovani MHOM/IN/80/Dd8 amastigotes harboring luciferase reporter gene infected in mouse J774 cells at 25 uM after 72 hrs by Steady-Glo luminescence assay relative to control; type: functional; conditions: for inhibition at 25 µM: MHOM/IN/80/Dd8, J774, 72 h
[3] = Cytotoxicity against African green monkey Vero cells assessed as cell viability at 100 uM by MTT assay relative to control; type: cell-based; conditions: chlorocebus sabaeus, read-out: Activity
Leishmania donovani [4] = assay: Antileishmanial activity against Leishmania donovani MHOM/IN/80/Dd8 amastigotes harboring luciferase reporter gene infected in mouse J774 cells at 50 uM after 72 hrs by Steady-Glo luminescence assay relative to control; type: functional; conditions: MHOM/IN/80/Dd8, J774, 72 h
[5] = Cytotoxicity against African green monkey Vero cells assessed as cell viability at 25 uM by MTT assay relative to control; type: cell-based; conditions: chlorocebus sabaeus, read-out: Activity
Leishmania donovani [6] = assay: Antileishmanial activity against promastigote stage of Leishmania donovani MHOM/IN/80/Dd8 harboring luciferase reporter gene at 25 uM after 48 hrs by Steady-Glo luminescence assay relative to control; type: functional; conditions: for inhibition at 25 µM: MHOM/IN/80/Dd8, 48 h
Leishmania donovani [7] = assay: Antileishmanial activity against promastigote stage of Leishmania donovani MHOM/IN/80/Dd8 harboring luciferase reporter gene at 100 uM after 48 hrs by Steady-Glo luminescence assay relative to control; type: functional; conditions: MHOM/IN/80/Dd8, 48 h
Leishmania donovani [8] = assay: Antileishmanial activity against Leishmania donovani MHOM/IN/80/Dd8 amastigotes harboring luciferase reporter gene infected in mouse J774 cells at 100 uM after 72 hrs by Steady-Glo luminescence assay relative to control; type: functional; conditions: MHOM/IN/80/Dd8, J774, 72 h
[9] = Cytotoxicity against African green monkey Vero cells assessed as cell viability at 50 uM by MTT assay relative to control; type: cell-based; conditions: chlorocebus sabaeus, read-out: Activity
Leishmania donovani [10] = assay: Antileishmanial activity against promastigote stage of Leishmania donovani MHOM/IN/80/Dd8 harboring luciferase reporter gene at 50 uM after 48 hrs by Steady-Glo luminescence assay relative to control; type: functional; conditions: for inhibition at 50 µM: MHOM/IN/80/Dd8, 48 h
[11] = Stability in simulated gastric fluid at 10 ug/ml measured after 2 hrs by UPLC analysis relative to control; type: ADME; conditions: read-out: Stability
[12] = Half life in mouse liver microsomes after 1 hr in presence of NADPH by UPLC analysis; type: ADME, Microsome
[13] = Intrinsic clearance in mouse liver microsomes after 1 hr in presence of NADPH by UPLC analysis; type: ADME, Microsome
[14] = Stability in mouse liver microsomes assessed as compound remaining after 1 hr in presence of NADPH by UPLC analysis; type: ADME, Microsome; conditions: read-out: Stability
[15] = Stability in simulated intestinal fluid at 10 ug/ml measured after 2 hrs by UPLC analysis relative to control; type: ADME; conditions: read-out: Stability
[16] = Stability in mouse plasma at 10 ug/ml measured after 2 hrs by UPLC analysis relative to control; type: ADME, cell-free; conditions: read-out: Stability

- inhibition (Leishmania donovani [1]): > 84%
SMILES: O=C(CC(=O)C(F)(F)F)c1ccco1

SMILES: CCOC(=O)C(C(=O)c1ccc(OC)cc1)C(NC(C)=O)c1cc(OC)c(OC)c(OC)c1 (stereo not drawn)
- inhibition at 25 µM (Leishmania donovani [2]): 25.4%
- viability at 100 µM [3]: 88.9%
- inhibition at 50 µM (Leishmania donovani [4]): 51.1%
- viability at 25 µM [5]: 97.8%
- inhibition at 25 µM (Leishmania donovani [6]): 28.3%
- inhibition at 100 µM (Leishmania donovani [7]): 43.1%
- inhibition at 100 µM (Leishmania donovani [8]): 51.3%
- viability at 50 µM [9]: 94.3%
- inhibition at 50 µM (Leishmania donovani [10]): 40.2%

SMILES: CSc1ccc(C(=O)/C(=C/c2cccnc2)c2ccc(Cl)c(Cl)c2)cc1
- inhibition at 25 µM (Leishmania donovani [2]): 34.3%
- viability at 100 µM [3]: 88.6%
- inhibition at 50 µM (Leishmania donovani [4]): 59.3%
- viability at 25 µM [5]: 95.7%
- inhibition at 25 µM (Leishmania donovani [6]): 46.7%
- inhibition at 100 µM (Leishmania donovani [7]): 83.2%
- inhibition at 100 µM (Leishmania donovani [8]): 62.1%
- viability at 50 µM [9]: 89.6%
- inhibition at 50 µM (Leishmania donovani [10]): 80.4%

SMILES: CCOC(=O)C(C(=O)c1ccc(OC)cc1)C(NC(C)=O)c1ccc(C(C)(C)C)cc1 (stereo not drawn)
- inhibition at 25 µM (Leishmania donovani [2]): 40.5%
- viability at 100 µM [3]: 89.5%
- inhibition at 50 µM (Leishmania donovani [4]): 46.1%
- viability at 25 µM [5]: 94.5%
- inhibition at 25 µM (Leishmania donovani [6]): 40.2%
- inhibition at 100 µM (Leishmania donovani [7]): 54.3%
- inhibition at 100 µM (Leishmania donovani [8]): 53.1%
- viability at 50 µM [9]: 92.3%
- inhibition at 50 µM (Leishmania donovani [10]): 52.4%

SMILES: CSc1ccc(C(=O)C(c2ccc(Cl)c(Cl)c2)C(NC(=O)c2ccc(C)cc2)c2cc3ccccc3s2)cc1 (stereo not drawn)
- inhibition at 25 µM (Leishmania donovani [2]): 9.2%
- viability at 100 µM [3]: 90.2%
- inhibition at 50 µM (Leishmania donovani [4]): 17.6%
- viability at 25 µM [5]: 95.3%
- inhibition at 25 µM (Leishmania donovani [6]): 20.1%
- inhibition at 100 µM (Leishmania donovani [7]): 24.2%
- inhibition at 100 µM (Leishmania donovani [8]): 21%
- viability at 50 µM [9]: 92.3%
- inhibition at 50 µM (Leishmania donovani [10]): 22.4%

SMILES: CCOC(=O)C(C(=O)c1ccc(OC)cc1)C(NC(C)=O)c1ccc(OC)c(OC)c1 (stereo not drawn)
- inhibition at 25 µM (Leishmania donovani [2]): 57.1%
- viability at 100 µM [3]: 88.5%
- inhibition at 50 µM (Leishmania donovani [4]): 58.1%
- viability at 25 µM [5]: 99.1%
- inhibition at 25 µM (Leishmania donovani [6]): 30.2%
- inhibition at 100 µM (Leishmania donovani [7]): 35.8%
- inhibition at 100 µM (Leishmania donovani [8]): 59.2%
- viability at 50 µM [9]: 96.7%
- inhibition at 50 µM (Leishmania donovani [10]): 35%

SMILES: CSc1ccc(C(=O)/C(=C/c2cc3ccccc3s2)c2ccc(Cl)c(Cl)c2)cc1
- inhibition (Leishmania donovani [2]): inactive
- viability at 100 µM [3]: 87%
- inhibition at 50 µM (Leishmania donovani [4]): 2.6%
- viability at 25 µM [5]: 93.4%
- inhibition at 25 µM (Leishmania donovani [6]): 62.1%
- inhibition at 100 µM (Leishmania donovani [7]): 72.1%
- inhibition at 100 µM (Leishmania donovani [8]): 2.8%
- viability at 50 µM [9]: 91.6%
- inhibition at 50 µM (Leishmania donovani [10]): 70.3%

SMILES: CSc1ccc(C(=O)C(c2ccc(Cl)c(Cl)c2)C(NC(C)=O)c2cccc3ccccc23)cc1 (stereo not drawn)
- inhibition at 25 µM (Leishmania donovani [2]): 25%
- viability at 100 µM [3]: 87.2%
- inhibition at 50 µM (Leishmania donovani [4]): 31.5%
- viability at 25 µM [5]: 90.1%
- inhibition at 25 µM (Leishmania donovani [6]): 55.8%
- inhibition at 100 µM (Leishmania donovani [7]): 78.6%
- inhibition at 100 µM (Leishmania donovani [8]): 36.4%
- viability at 50 µM [9]: 89.3%
- inhibition at 50 µM (Leishmania donovani [10]): 74.3%

SMILES: CCOC(=O)C(C(=O)c1ccc(OC)cc1)C(NC(C)=O)c1cc(OC)ccc1Br (stereo not drawn)
- remaining at 2 h, 10 ug/ml [11]: 71.1%
- half-life [12]: 1.55 h
- CLH [13]: 5 µL/min/mg
- remaining at 1 h [14]: 57.8%
- remaining at 2 h, 10 ug/ml [15]: 69.6%
- inhibition at 25 µM (Leishmania donovani [2]): 58.2%
- viability at 100 µM [3]: 90.7%
- inhibition at 50 µM (Leishmania donovani [4]): 62.3%
- viability at 25 µM [5]: 96.3%
- inhibition at 25 µM (Leishmania donovani [6]): 68%
- remaining at 2 h, 10 ug/ml [16]: 6.97%
- inhibition at 100 µM (Leishmania donovani [7]): 81.2%
- inhibition at 100 µM (Leishmania donovani [8]): 64.2%
- viability at 50 µM [9]: 93.3%
- inhibition at 50 µM (Leishmania donovani [10]): 80.3%

SMILES: CSc1ccc(C(=O)C(c2ccc(Cl)c(Cl)c2)C(NC(=O)c2ccc(C)cc2)c2cccc3ccccc23)cc1 (stereo not drawn)
- inhibition at 25 µM (Leishmania donovani [2]): 14.3%
- viability at 100 µM [3]: 88.6%
- inhibition at 50 µM (Leishmania donovani [4]): 23.8%
- viability at 25 µM [5]: 90.5%
- inhibition (Leishmania donovani [6]): inactive
- inhibition at 100 µM (Leishmania donovani [7]): 12.5%
- inhibition at 100 µM (Leishmania donovani [8]): 25.9%
- viability at 50 µM [9]: 89.6%
- inhibition (Leishmania donovani [10]): inactive
